# According to PubChem BioAssay AID1963838 (Molecular Pharmacology Branch, DTP, NCI, 2024):
# Test system: 855422-203-R-J1-PDC complex spheroid viability
# Experiment: Anticancer human tumor 855422-203-R-J1-PDC patient-derived bladder carcinoma cell line growth inhibition [POLQ]
# Conditions: for IC50: curve of first compound; for viability, T/C: stronger effect = lower value
# Protocol: Multicellular complex tumor spheroid response to Polymerase (POL) inhibitors (novobiocin, ART-558, RP6685) in combination with a variety of drugs and investigational agents in selected tumor cell lines
# The POL inhibitors (novobiocin, ART-558, and RP6685) were evaluated both individually and in combination with standard of care and investigational anticancer small molecules within a complex spheroid model of solid tumors. . Complex spheroids include a stromal component modeled by human endothelial cells (HUVEC) and fibroblasts modeled by human mesenchymal stem cells (MSCs). The concentration ranges selected for each drug and investigational agent were based upon clinically achievable concentrations if the clinical Cmax of the agent was known.
# Compounds. The drugs and investigational agents: novobiocin (NSC847541), ART-558 (NSC835418), RP-6685 (NSC848927), peposertib (NSC802822), ceralasertib (NSC780249), elimusertib (NSC800525), camonsertib (NSC841442), AZD-1390 (NSC803789), olaparib (NSC753686), talazoparib (NSC767125), rucaparib (NSC756644), sotorasib (NSC818433), MRTX-1133 (NSC836407), SN-38 (NSC673596), topotecan (NSC609699), epotoside (NSC141540), doxorubicin (NSC123127), gemcitabine (NSC613327), 5-fluorouracil (NSC19893), paclitaxel (NSC125973), vemurafenib (NSC761431), MSA-2 (NSC828583), SN-011 (NSC837082), adavosertib (NSC754352), prexasertib (NSC758257), carboplatin (NSC241240) and oxaliplatin (NSC266046), were obtained from the National Cancer Institute (NCI) Developmental Therapeutics Program Chemical Repository (21). The FDA-approved anticancer drug set is available from the Developmental Therapeutics Program at https://dtp.cancer.gov/organization/dscb/obtaining/. […] The stock solutions were prepared in dimethyl sulfoxide (DMSO, Sigma-Aldrich, St. Louis, MO, cat. D2650), except for the platinum compounds which were prepared in saline (Quality Biological, Gaithersburg, MD, cat. 114-055-101), at 800-fold the tested concentration and stored at -70 degrees C prior to their use. All drugs and investigational agents were tested over a range starting from a high concentration at or near the clinical Cmax and decreasing in half-log increments. If the clinical Cmax for an agent had not been determined, the highest concentration tested was 10 microM, except for SN-38, which was tested at a high concentration of 1 microM.
# Cell Culture. All cells were maintained in an incubator at 37 degrees C and 5% CO2 with 95% humidity. The PDC lines were cultured according to standard operating procedures established by the NCI PDMR (https://pdmr.cancer.gov). Table 3 of the manuscript, lists the cell lines along with the number of the three cell types plated to form the mct-spheroids and media for tumor cell growth. After thawing, all PDC lines, except 997537-175-T-J1-PDC and 415267-285-R-J2-PDC, were cultured in Matrigel-coated flasks prepared with a working solution of 1X Ham's F-12 nutrient mix, without supplementation (Thermo Fisher Scientific, cat. 11765054), 100 U/mL penicillin-streptomycin (Thermo Fisher Scientific, cat. 15140122), and 2.5% Matrigel (Corning Inc., Corning, NY, cat. 354248) for the first three passages. The two PDC lines 997537-175-T-J1-PDC and 415267-285-R-J2-PDC were cultured on uncoated flasks. The 857933-349-R-J2-PDC line was cultured in 6C/Colon 1B media containing advanced DMEM/F-12 (Thermo Fisher Scientific, cat. 12634028), 10 mM HEPES (Thermo Fisher Scientific, cat. 15630080), 1X GlutaMAX supplement (Thermo Fisher Scientific, cat. 35050061), 0.1 mg/mL primocin (InvivoGen, San Diego, CA, cat. ant-pm-2), 10% defined fetal bovine serum, heat inactivated (HyClone Laboratories Inc., Logan, UT, cat. SH30070.03HI), 50% L-WRN conditioned media (ATCC, cat. CRL-3276), 1.25 mM N-Acetyl-L-cysteine (Sigma-Aldrich, cat. A9165), 10 mM nicotinamide (Sigma-Aldrich, cat. N0636), 1X B-27 supplement (Thermo Fisher Scientific, cat. 17504044), 1X N-2 supplement (Thermo Fisher Scientific, cat. […]
# [1] = second compound 0.0316 µM, first compound 0.0316 µM
# [2] = second compound 0.0316 µM, first compound 0.1 µM
# [3] = second compound 0.0316 µM, first compound 0.316 µM
# [4] = second compound 0.0316 µM, first compound 1 µM
# [5] = second compound 0.1 µM, first compound 0.0316 µM
# [6] = second compound 0.1 µM, first compound 0.1 µM
# [7] = second compound 0.1 µM, first compound 0.316 µM
# [8] = second compound 0.1 µM, first compound 1 µM
# [9] = second compound 0.316 µM, first compound 0.0316 µM
# [10] = second compound 0.316 µM, first compound 0.1 µM
# [11] = second compound 0.316 µM, first compound 0.316 µM
# [12] = second compound 0.316 µM, first compound 1 µM
# [13] = second compound 1 µM, first compound 0.0316 µM
# [14] = second compound 1 µM, first compound 0.1 µM
# [15] = second compound 1 µM, first compound 0.316 µM
# [16] = second compound 1 µM, first compound 1 µM
# [17] = second compound 3.16 µM, first compound 0.0316 µM
# [18] = second compound 3.16 µM, first compound 0.1 µM
# [19] = second compound 3.16 µM, first compound 0.316 µM
# [20] = second compound 3.16 µM, first compound 1 µM
# [21] = second compound 10 µM, first compound 0.0316 µM
# [22] = second compound 10 µM, first compound 0.1 µM
# [23] = second compound 10 µM, first compound 0.316 µM
# [24] = second compound 10 µM, first compound 1 µM
# [25] = second compound 0.0316 µM, first compound 3.16 µM
# [26] = second compound 0.0316 µM, first compound 10 µM
# [27] = second compound 0.1 µM, first compound 3.16 µM
# [28] = second compound 0.1 µM, first compound 10 µM
# [29] = second compound 0.316 µM, first compound 3.16 µM
# [30] = second compound 0.316 µM, first compound 10 µM
# [31] = second compound 1 µM, first compound 3.16 µM
# [32] = second compound 1 µM, first compound 10 µM
# [33] = second compound 3.16 µM, first compound 3.16 µM
# [34] = second compound 3.16 µM, first compound 10 µM
# [35] = second compound 10 µM, first compound 3.16 µM
# [36] = second compound 10 µM, first compound 10 µM
# 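Note: spheroids exposed to compounds for seven days before readout.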
compound,measurement,setting,value
C=CCn1c(=O)c2cnc(Nc3ccc(N4CCN(C)CC4)cc3)nc2n1-c1cccc(C(C)(C)O)n1 + Nc1ccc(C#CCN(C(=O)Cc2ncc(C(F)(F)F)cc2C(F)(F)F)c2ccc(F)cc2)nn1,IC50,second compound 0.0316 µM,> 1 µM
same,IC50,second compound 0.1 µM,> 1 µM
same,IC50,second compound 0.316 µM,> 1 µM
same,IC50,second compound 1 µM,> 1 µM
same,IC50,second compound 3.16 µM,> 1 µM
same,IC50,second compound 10 µM,> 1 µM
same,"viability, T/C","second compound 0.0316 µM, first compound 0.00316 µM",96.4%
same,"viability, T/C","second compound 0.0316 µM, first compound 0.01 µM",152%
same,"viability, T/C",[1],113%
same,"viability, T/C",[2],85.5%
same,"viability, T/C",[3],113%
same,"viability, T/C",[4],204%
same,"viability, T/C","second compound 0.1 µM, first compound 0.00316 µM",97%
same,"viability, T/C","second compound 0.1 µM, first compound 0.01 µM",127%
same,"viability, T/C",[5],110%
same,"viability, T/C",[6],101%
same,"viability, T/C",[7],114%
same,"viability, T/C",[8],160%
same,"viability, T/C","second compound 0.316 µM, first compound 0.00316 µM",110%
same,"viability, T/C","second compound 0.316 µM, first compound 0.01 µM",134%
same,"viability, T/C",[9],102%
same,"viability, T/C",[10],107%
same,"viability, T/C",[11],110%
same,"viability, T/C",[12],219%
same,"viability, T/C","second compound 1 µM, first compound 0.00316 µM",94.4%
same,"viability, T/C","second compound 1 µM, first compound 0.01 µM",144%
same,"viability, T/C",[13],103%
same,"viability, T/C",[14],112%
same,"viability, T/C",[15],118%
same,"viability, T/C",[16],193%
same,"viability, T/C","second compound 3.16 µM, first compound 0.00316 µM",102%
same,"viability, T/C","second compound 3.16 µM, first compound 0.01 µM",112%
same,"viability, T/C",[17],107%
same,"viability, T/C",[18],115%
same,"viability, T/C",[19],126%
same,"viability, T/C",[20],198%
same,"viability, T/C","second compound 10 µM, first compound 0.00316 µM",104%
same,"viability, T/C","second compound 10 µM, first compound 0.01 µM",101%
same,"viability, T/C",[21],96.9%
same,"viability, T/C",[22],122%
same,"viability, T/C",[23],109%
same,"viability, T/C",[24],161%
CC1COCCN1c1cc(C2(S(C)(=N)=O)CC2)nc(-c2ccnc3[nH]ccc23)n1 (stereo unspecified) + Nc1ccc(C#CCN(C(=O)Cc2ncc(C(F)(F)F)cc2C(F)(F)F)c2ccc(F)cc2)nn1,IC50,second compound 0.0316 µM,5.25 µM
same,IC50,second compound 0.1 µM,3.92 µM
same,IC50,second compound 0.316 µM,3.05 µM
same,IC50,second compound 1 µM,3.4 µM
same,IC50,second compound 3.16 µM,2.89 µM
same,IC50,second compound 10 µM,2.53 µM
same,"viability, T/C",[1],104%
same,"viability, T/C",[2],98.9%
same,"viability, T/C",[3],132%
same,"viability, T/C",[4],98.2%
same,"viability, T/C",[25],78.2%
same,"viability, T/C",[26],14.9%
same,"viability, T/C",[5],111%
same,"viability, T/C",[6],124%
same,"viability, T/C",[7],99.8%
same,"viability, T/C",[8],187%
same,"viability, T/C",[27],57.6%
same,"viability, T/C",[28],16.6%
same,"viability, T/C",[9],95.4%
same,"viability, T/C",[10],111%
same,"viability, T/C",[11],102%
same,"viability, T/C",[12],180%
same,"viability, T/C",[29],47.8%
same,"viability, T/C",[30],13.9%
same,"viability, T/C",[13],93.3%
same,"viability, T/C",[14],108%
same,"viability, T/C",[15],116%
same,"viability, T/C",[16],144%
same,"viability, T/C",[31],52.4%
same,"viability, T/C",[32],14.1%
same,"viability, T/C",[17],111%
same,"viability, T/C",[18],91.7%
same,"viability, T/C",[19],119%
same,"viability, T/C",[20],189%
same,"viability, T/C",[33],43.2%
same,"viability, T/C",[34],11.3%
same,"viability, T/C",[21],97.7%
same,"viability, T/C",[22],96.1%
same,"viability, T/C",[23],113%
same,"viability, T/C",[24],152%
same,"viability, T/C",[35],34.3%
same,"viability, T/C",[36],11.3%
CCCS(=O)(=O)Nc1ccc(F)c(C(=O)c2c[nH]c3ncc(-c4ccc(Cl)cc4)cc23)c1F + Nc1ccc(C#CCN(C(=O)Cc2ncc(C(F)(F)F)cc2C(F)(F)F)c2ccc(F)cc2)nn1,IC50,second compound 0.0316 µM,5.93 µM
same,IC50,second compound 0.1 µM,5.88 µM
same,IC50,second compound 0.316 µM,6.2 µM
same,IC50,second compound 1 µM,5.98 µM
same,IC50,second compound 3.16 µM,6.02 µM
same,IC50,second compound 10 µM,5.89 µM
same,"viability, T/C",[1],101%
same,"viability, T/C",[2],116%
same,"viability, T/C",[3],92.3%
same,"viability, T/C",[4],103%
same,"viability, T/C",[25],112%
same,"viability, T/C",[26],4.15%
same,"viability, T/C",[5],99%
same,"viability, T/C",[6],117%
same,"viability, T/C",[7],109%
same,"viability, T/C",[8],107%
same,"viability, T/C",[27],103%
same,"viability, T/C",[28],4.49%
same,"viability, T/C",[9],116%
same,"viability, T/C",[10],113%
same,"viability, T/C",[11],93.1%
same,"viability, T/C",[12],106%
same,"viability, T/C",[29],109%
same,"viability, T/C",[30],9.19%
same,"viability, T/C",[13],106%
same,"viability, T/C",[14],106%
same,"viability, T/C",[15],96.2%
same,"viability, T/C",[16],106%
same,"viability, T/C",[31],109%
same,"viability, T/C",[32],5.86%
same,"viability, T/C",[17],93.5%
same,"viability, T/C",[18],108%
same,"viability, T/C",[19],101%
same,"viability, T/C",[20],101%
same,"viability, T/C",[33],103%
same,"viability, T/C",[34],9.79%
same,"viability, T/C",[21],94%
same,"viability, T/C",[22],102%
same,"viability, T/C",[23],101%
same,"viability, T/C",[24],112%
same,"viability, T/C",[35],99.8%
same,"viability, T/C",[36],7.62%
